Values after ≈ are worked out from the molar mass of the structure shown.
Key:
E. coli = assay: Bacterial susceptibility testing, MIC by broth microdilution (CLSI); assay type: cell-based; conditions: Escherichia coli, cation adjusted Mueller-Hinton Broth, 35° C., 18-24 h
Method: (§1) Minimal inhibitory concentrations (MIC) were determined by the broth microdilution method in accordance with the Clinical and Laboratory Standards Institute (CLSI) guidelines. In brief, organism suspensions were adjusted to a 0.5 McFarland standard to yield a final inoculum between 3×10^5 and 7×10^5 colony-forming units (CFU)/mL. Drug dilutions and inocula were made in sterile, cation adjusted Mueller-Hinton Broth (Beckton Dickinson). An inoculum volume of 100 μL was added to wells containing 100 μL of broth with 2-fold serial dilutions of drug. All inoculated microdilution trays were incubated in ambient air at 35° C. for 18-24 h. Following incubation, the lowest concentration of the drug that prevented visible growth (OD600 nm<0.05) was recorded as the MIC. Performance of the assay was monitored by the use of laboratory quality-control strains and levofloxacin, a compound with a defined MIC spectrum, in accordance with CLSI guidelines.

S. aureus = assay: as above; assay type: cell-based; conditions: Staphylococcus aureus, cation adjusted Mueller-Hinton Broth, 35° C., 18-24 h
Method: as §1

MIC (E. coli) | MIC (S. aureus) | Structure (SMILES)
> 32 µg/mL |  | CS(=O)(=O)C(Cc1ccc(C#Cc2ccc(CN3CCOCC3)cc2)cc1)c1occc(=O)c1O (stereo not drawn) [Compound 1, 3-hydroxy-2-(1-(methylsulfonyl)-2-(4-((4-(morpholinomethyl)phenyl)ethynyl)phenyl)ethyl)-4H-pyran-4-one]
> 32 µg/mL |  | O=C(Nc1ccc(C#CC#Cc2ccccc2)cc1)c1occc(=O)c1O [Compound 2, 3-hydroxy-4-oxo-N-(4-(phenylbuta-1,3-diyn-1-yl)phenyl)-4H-pyran-2-carboxamide]
> 32 µg/mL | > 32 µg/mL | CS(=O)(=O)NCC(Cc1ccc(-c2ccccc2)cc1)c1occc(=O)c1O (stereo not drawn) [Compound 3, N-(3-([1,1′-biphenyl]-4-yl)-2-(3-hydroxy-4-oxo-4H-pyran-2-yl)propyl)methanesulfonamide]
> 32 µg/mL | > 32 µg/mL | CS(=O)(=O)CC(Cc1ccc(-c2ccccc2)cc1)c1occc(=O)c1O (stereo not drawn) [Compound 4, 2-(1-([1,1′-biphenyl]-4-yl)-3-(methylsulfonyl)propan-2-yl)-3-hydroxy-4H-pyran-4-one]
> 32 µg/mL | > 32 µg/mL | O=c1ccoc(C(CO)Cc2ccc(-c3ccccc3)cc2)c1O (stereo not drawn) [Compound 5, 2-(1-([1,1′-biphenyl]-4-yl)-3-hydroxypropan-2-yl)-3-hydroxy-4H-pyran-4-one]
8 µg/mL (≈ 24.9 µM) | 8 µg/mL (≈ 24.9 µM) | NCC(Cc1ccc(-c2ccccc2)cc1)c1occc(=O)c1O (stereo not drawn) [Compound 6, 2-(1-([1,1′-biphenyl]-4-yl)-3-aminopropan-2-yl)-3-hydroxy-4H-pyran-4-one]
> 32 µg/mL | > 32 µg/mL | O=c1ccoc(CN(CCO)c2ccc(-c3ccccc3)cc2)c1O [Compound 7, 2-(([1,1′-biphenyl]-4-yl(2-hydroxyethyl)amino)methyl)-3-hydroxy-4H-pyran-4-one]

— patent US11021471B2, “Antibacterial compounds” (FORGE THERAPEUTICS, INC., priority 2017, dated 2021)
